Molecules are shown by their SMILES. Calls of active or inactive are those of the source. No cut-off for these calls is given here.

This is an account of results in ChEMBL document CHEMBL3400041, “Pyridinic analog of the natural product (-)-spectaline as potential adjuvant for the treatment of central nervous system disorders” (Bioorg Med Chem Lett, 2015).

Data set [1] deals with Mus musculus. Put plainly: Antischizophrenic activity in mouse assessed as inhibition of apomorphine-induced climbing behavior at 5 mg/kg, po. The class given is functional, organism-based. Set-up: dose 5 mg/kg.
In data set [2] the test system is Mus musculus. Put plainly: Antischizophrenic activity in mouse assessed as inhibition of apomorphine-induced climbing behavior at 5 to 10 mg/kg, po. It is filed as functional, organism-based.
Data set [3] deals with Mus musculus. Put plainly: Antidepressant-like activity in mouse assessed as decrease in immobility time at 5 to 10 mg/kg, po by forced swimming test. It is filed as functional, organism-based.
In data set [4] the test system is Mus musculus. Kind of data set: Toxicity in mouse assessed as rearing behavior at 10 mg/kg, po by spontaneous locomotor activity test. The following applies: in vivo. The class given is organism-based. Also noted: dose 10 mg/kg, route oral.
The subject of data set [5] is Mus musculus. Kind of data set: Effect on CNS activity in mouse assessed as reduction in number of groomings at 10 mg/kg, po by spontaneous locomotor activity test. It is filed as functional, organism-based. To be noted: Central nervous system. Also noted: dose 10 mg/kg.
Data set [6] concerns Mus musculus. Put plainly: Effect on CNS activity in mouse assessed as reduction in exploratory behaviour at 10 mg/kg, po by spontaneous locomotor activity test. It is filed as functional, organism-based. Also noted: dose 10 mg/kg. To be noted: Central nervous system.
The test system of data set [7] is Mus musculus. Put plainly: Antidepressant-like activity in mouse assessed as decrease in immobility time at 10 mg/kg, po by forced swimming test. The class given is functional, organism-based. Also noted: dose 10 mg/kg.
Data set [8] concerns Mus musculus. Put plainly: Antischizophrenic activity in mouse assessed as inhibition of apomorphine-induced climbing behavior at 10 mg/kg, po. Also noted: dose 10 mg/kg. It is filed as functional, organism-based.

For the compound `CN1CCN(C2=Nc3cc(Cl)ccc3Nc3ccccc32)CC1`, the inhibition entry in the data set with Mus musculus [1] was “Active”.

As to `CCOC(=O)CSc1nc(Cl)ccc1[N+](=O)[O-]`, the inhibition entry with Mus musculus [2] was “inactive”. Further, the result in the data set with Mus musculus [3] was inactive. For the same compound, in the data set on Mus musculus [4], the Activity entry was “Non-toxic”. Moreover, the outcome in the data set on Mus musculus [5] and in the data set on Mus musculus [6] was Active.

With `CCOC(=O)CSc1ccc([N+](=O)[O-])c(SCC(=O)OCC)n1`, the inhibition result in the data set on Mus musculus [2] is “inactive”. Besides, the result with Mus musculus [3] was inactive. In addition, in the data set with Mus musculus [4], the Activity entry was “Non-toxic”. Also, the outcome in the data set on Mus musculus [5] and in the data set with Mus musculus [6] was Active.

`CN(C)CCCN1c2ccccc2CCc2ccccc21`: in the data set on Mus musculus [7], the result was Active.

Consider `CCOC(=O)CSc1ncccc1[N+](=O)[O-]`, for which, in the data set with Mus musculus [8], the inhibition result was “Active”. Besides, the outcome in the data set with Mus musculus [3], in the data set with Mus musculus [5] and in the data set with Mus musculus [6] was Active. Besides, in the data set on Mus musculus [4], the Activity result is “Non-toxic”.
